Values after ≈ are worked out from the molar mass of the structure shown. Like-named read-outs stand apart in the source and are kept apart here.
Legend:
[1] = Solubility in saline at room temperature; type: physicochemical; conditions: saline or isotonic
NCI-H460 cells [2] = experiment: Antiproliferation assay - oxygen dependence; type: cell-based, human; conditions: Homo sapiens
Description: . […] The calculated IC50 values (μM) are tabulated in Table Y1 (H460 cells) or Table Y2 (HT29 cells) below.

HT29 [3] = experiment: Anti-proliferation assay, hypoxia vs normoxia (Table 1B); conditions: for IC50: Homo sapiens
human H460 cells = experiment: Clonogenic survival assay, hypoxia vs normoxia (Table 1A); conditions: for IC90: Homo sapiens; for HCR C: ratio of IC90 in normoxia and hypoxia
NCI-H460 cells [4] = experiment: Clonogenic assay - oxygen dependence; conditions: Homo sapiens
H460 cell line = experiment: Anti-proliferation assay, hypoxia vs normoxia (Table 1A); conditions: for IC50: Homo sapiens; for HCR P: ratio of IC50 in normoxia and hypoxia
[5] = system: mouse (MLM) liver microsomal proteins; type: in vitro ADME; conditions: Table 2B
HT29 [6] = experiment: Clonogenic assay, hypoxia vs normoxia (Table 1B); conditions: for IC90: Homo sapiens
in vivo = conditions: 50 mg/kg
HT29 cells = experiment: Antiproliferation assay (Alamar Blue), anoxia vs air; conditions: Homo sapiens, HT-29, 2 h
[7] = Pharmacokinetics after intravenous or intraperitoneal administration in mice (Table 2B); conditions: plasma, 50 mg/kg
[8] = Plasma stability (Table 2B); conditions: 30 min
spheroids = experiment: Spheroid combination with cisplatin or daunorubicin, clonogenic survival; type: cell-based, human; conditions: 2 h exposure, read-out: IC50 (μM), spheroids, cisplatin combination experiment
Description: The phosphoramidate alkylator prodrug was combined simultaneously with cisplatin or daunorubicin and the spreroids exposed for 2 h to the combination, followed by measurement of clonogenic survival.

[9] = system: H460 lung carcinoma spheroids; experiment: Spheroid model, clonogenic survival; conditions: read-out: IC90 H460 Spheroid 10% O2
[10] = system: H460 cells exposed as monolayers; experiment: Clonogenic survival of monolayer cells (Example 35)
HT29 xenograft = experiment: HT-29 xenograft mouse model with CDDP (Example 52); type: in vivo; conditions: Group 2; tumor volumes at day 25; vs vehicle group; CDDP in saline IV alone
Description: Female CB17/SCID mice (purchased from Charles River, Cambridge, Mass.), 7-8 weeks of age, were allowed to acclimatize for at least three days, and handled under pathogen-free conditions. Human colon carcinoma cell line HT29 was obtained from the American Type Culture Collection. The cell lines were cultured and harvested as described in Example 47 and inoculated at 3×10^6 cells/animal in the peritoneal subcutaneous space. When the tumors grew to an average volume of 100 mm^3 (day 8), each group of mice (ten per group) was administered, for three weeks, as tabulated in the table below: Compound 25 in saline, administration route—i.p., administrated 2 h before CDDP on the days the combination therapy is scheduled and CDDP (in saline, IV).
The body weight and tumor volume were determined as described in Example 47. Data are based on tumor volumes at day 25 when tumors in the vehicle group had reached sufficient size to require that the mice be sacrificed.

MES-SA/Dx5 cells = experiment: Antiproliferation assay (Alamar Blue), anoxia vs air; conditions: Homo sapiens, MES-SA/Dx5, 2 h
[11] = type: physicochemical; conditions: glassy carbon, Ag/AgCl reference
DX-5 = experiment: Anti-proliferation assay, hypoxia vs normoxia (Table 1B)
NCI-H460 cells [12] = experiment: Antiproliferation assay (Alamar Blue), anoxia vs air; conditions: Homo sapiens, NCI-H460, 2 h
[13] = NCI-H460, read-out: IC50 in H460 cells, 0.6% O2
[14] = NCI-H460, read-out: IC50 in H460 cells, 1% O2
[15] = NCI-H460, read-out: IC50 in H460 cells, Air
[16] = NCI-H460, read-out: IC50 in H460 cells, N2
[17] = HT-29, read-out: HT29 P H (proliferation IC50, hypoxia)
[18] = NCI-H460, read-out: Hypoxia C (clonogenic IC90)
[19] = NCI-H460, read-out: Normoxia C (clonogenic IC90)
[20] = NCI-H460, read-out: Hypoxia P (proliferation IC50)
[21] = NCI-H460, read-out: Normoxia P (proliferation IC50)
[22] = HT-29, read-out: HT29 C H (clonogenic IC90, hypoxia)
[23] = CD-1, Balb/c for Compound 1, mouse, ip
[24] = CD-1, Balb/c for Compound 1, mouse, iv

Cn1c([N+](=O)[O-])cnc1COP(=O)(NCCBr)NCCBr [Compound 73]
solubility [1]: 10000 µg/mL (≈ 22.3 mM)

O=[N+]([O-])c1ccc(COP(=O)(NCCCl)NCCCl)o1 [Compound 23]
IC50 (NCI-H460 cells [2]; NCI-H460, read-out: IC50 in H460 cells, 0.1% O2): 5 µM
IC50 (NCI-H460 cells [2]; [13]): 6 µM
IC50 (NCI-H460 cells [2]; [14]): 5 µM
IC50 (NCI-H460 cells [2]; [15]): 5 µM
IC50 (NCI-H460 cells [2]; [16]): 0.05 µM
IC50 (HT29 [3]; [17]): 7.5 µM
IC90 (human H460 cells; [18]): 0.2 µM
IC90 (human H460 cells; [19]): 10 µM
HCR C (human H460 cells): 50
IC90 (NCI-H460 cells [4]; NCI-H460, read-out: IC90 H460 0.6% O2): 0.6 µM
IC90 (NCI-H460 cells [4]; NCI-H460, read-out: IC90 H460 Air): 5 µM
IC90 (NCI-H460 cells [4]; NCI-H460, read-out: IC90 H460 N2): 0.3 µM
IC50 (H460 cell line; [20]): 0.04 µM
IC50 (H460 cell line; [21]): 5 µM
HCR P (H460 cell line): 125
Metabolic stability (MLM) (% at 30 min) [5]: 71%
IC90 (HT29 [6]; [22]): 2 µM
Cmax (in vivo; CD-1, mouse, ip): 8500 ng/mL
Tmax (in vivo; CD-1, mouse, ip): 5 min
half-life (in vivo; CD-1, mouse, ip): 9.6 min
Cmax (in vivo; CD-1, mouse, iv): 7800 ng/mL
Tmax (in vivo; CD-1, mouse, iv): 5 min
half-life (in vivo; CD-1, mouse, iv): 8.87 min
IC50 (HT29 cells; read-out: IC50 HT29 Anoxia): 7.5 µM
clearance ([7]; CD-1 (Compounds 5, 23, 36), Balb/c (Compound 1), mouse, iv): 368 mL/min/kg
AUC ([7]; CD-1, mouse, ip): 3500 ng·h/mL
Cmax [7, 23]: 8500 ng/mL
AUC [7, 24]: 2300 ng·h/mL
Cmax [7, 24]: 7800 ng/mL
Vd [7, 24]: 3.3 L/kg
half-life [7, 24]: 9 min
half-life ([7]; mouse, ip): 9.6 min
Plasma stability (% at 30 min) [8]: 84%

N.N.[Cl][Pt][Cl] [Cisplatin, cis-Diaminedichloroplatinum (II), reference compound]
IC50 (spheroids): 14 µM
IC90 ([9]; 2 h exposure, 10% O2): 8 µM
IC90 ([10]; read-out: IC90 H460 Monolayer 0.6% O2, 2 h exposure, 0.6% O2): 7.7 µM
IC90 ([10]; read-out: IC90 H460 Monolayer Air, 2 h exposure, Air): 7.3 µM
IC90 ([10]; read-out: IC90 H460 Monolayer N2, 2 h exposure, N2): 4.2 µM
% Inhibition vs Group 1 (HT29 xenograft): 24.2%

Cn1c([N+](=O)[O-])cnc1COP(=O)(N(CCCl)CCCl)N(CCCl)CCCl [Compound 155]
solubility [1]: < 1000 µg/mL

Cn1c(COP(N)(=O)N(CCCl)CCCl)cnc1[N+](=O)[O-] (stereo not shown) [Compound 1]
IC50 (NCI-H460 cells [2]; NCI-H460, read-out: IC50 in H460 cells, 0.3% O2): 10 µM
IC50 (NCI-H460 cells [2]; [13]): 7 µM
IC50 (NCI-H460 cells [2]; [14]): 50 µM
IC50 (NCI-H460 cells [2]; [15]): 100 µM
IC50 (NCI-H460 cells [2]; [16]): 0.3 µM
HT29 HCR P (HT29 [3]): >2
IC50 (HT29 [3]; [17]): 50 µM
IC50 (HT29 [3]; HT-29, read-out: HT29 P N (proliferation IC50, normoxic)): 100 µM
IC90 (human H460 cells; [18]): 0.35 µM
IC90 (human H460 cells; [19]): 75 µM
HCR C (human H460 cells): 200
IC50 (H460 cell line; [20]): 0.4 µM
IC50 (H460 cell line; [21]): 72 µM
HCR P (H460 cell line): 180
IC50 (MES-SA/Dx5 cells; read-out: IC50 MES-SA/Dx5 Air): > 100 µM
IC50 (MES-SA/Dx5 cells; read-out: IC50 MES-SA/Dx5 Anoxia): 1 µM
HT29 HCR C (HT29 [6]): >100
IC90 (HT29 [6]; [22]): 0.4 µM
IC90 (HT29 [6]; HT-29, read-out: HT29 C N (clonogenic IC90, normoxic)): 100 µM
Cmax (in vivo; Balb/c, mouse, ip): 29900 ng/mL
Tmax (in vivo; Balb/c, mouse, ip): 15 min
AUC (in vivo; Balb/c, mouse, iv): 12500 ng·h/mL
Cmax (in vivo; Balb/c, mouse, iv): 35000 ng/mL
Tmax (in vivo; Balb/c, mouse, iv): 5 min
half-life (in vivo; Balb/c, mouse, iv): 15.3 min
IC90 ([9]; Homo sapiens, NCI-H460, 2 h): > 100 µM
IC50 (HT29 cells; read-out: IC50 HT29 Air): > 100 µM
IC50 (HT29 cells; read-out: IC50 HT29 Anoxia): 50 µM
Cmax [7, 23]: 29900 ng/mL
AUC [7, 24]: 12500 ng·h/mL
Cmax [7, 24]: 35000 ng/mL
Vd [7, 24]: 1.48 L/kg
half-life [7, 24]: 15.6 min
half-life ([7]; mouse, ip): 15 min
Reduction Potentials, 100 mV/sec ([11]; scan rate 100 mV/sec): −596 mV
Reduction Potentials, 10,000 mV/sec ([11]; scan rate 10,000 mV/sec): −638 mV
DX-5 HCR (DX-5): >100
IC50 (DX-5; read-out: DX-5 P H (proliferation IC50, hypoxia)): 1 µM
IC50 (DX-5; read-out: DX-5 P N (proliferation IC50, normoxic)): > 100 µM
IC50 (NCI-H460 cells [12]; read-out: IC50 H460 Air, air, 2 h exposure): 72 µM
IC50 (NCI-H460 cells [12]; read-out: IC50 H460 Anoxia, anoxia, 2 h exposure): 0.4 µM
IC90 ([10]; Homo sapiens, NCI-H460, 2 h, read-out: IC90 H460 Monolayer Air): 75 µM
IC90 ([10]; Homo sapiens, NCI-H460, 2 h, read-out: IC90 H460 Monolayer N2): 0.35 µM
Plasma stability (% at 30 min) [8]: 100%
